Assay results taken from patent publication US10842806B2, “Methods for treating ocular inflammatory disorders” (Massachusetts Eye and Ear Infirmary, priority 2011, dated 2020).

Tested on: WT BMDCs
Test: BMDC maturation with AICAR plus adenosine kinase inhibitor or nucleoside transporter inhibitor
Assay type: cell-based, mice
Settings: CD40, CD80, CD86, I-A^b by FACS
Description: FIG. 15 depicts the combined effect of AICAR and a nucleoside transporter or an adenosine kinase inhibitor on BMDC maturation. WT BMDCs were stimulated with LPS and 1 mM AICAR in the presence or absence of 0.1 mM IODO or 1 μM DPY. The number of CD11c-gated CD40, CD80, CD86 and I-A^b positive cells was measured by FACS. Bars represent mean±SD from three independent experiments. BMDCs were generated as previously described (Wang et al. (2005) IMMUNOL. LETT. 98:123-130). Briefly, bone marrow was flushed from the femurs and tibias of naive mice (6 to 8-week-old WT or AMPKα1 KO mice). The red blood cells were lysed using Red Blood Cell Lysing Buffer (Sigma). Approximately 2×10^6 cells were cultured in complete medium (RPMI 1640 medium containing 10% FBS, […], 10 mM HEPES [pH 7.4], 2 mM glutamine, 100 U/ml penicillin, and […]) including 10 ng/ml GM-CSF (Pepro Tech, London, England). Fresh media was added to the cells on day 4 of culture, and nonadherent cells and loosely adherent cells were collected as immature DCs on day 7. Immature DCs were stimulated with 100 ng/ml LPS (Salmonella typhimurium; Sigma) for 24 hours to obtain mature DCs. In some experiments, AICAR was added to the culture. […] To further study AICAR's suppressive effect, an adenosine kinase inhibitor (IODO) was used to inhibit AICAR conversion to ZMP. […]

Effect on downregulation of co-stimulatory molecule expression by AICAR (0.1 mM IODO with LPS and 1 mM AICAR) | Effect on AICAR-mediated suppression of co-stimulatory molecule expression (1 μM DPY with LPS and 1 mM AICAR) | SMILES
did not affect | – | Nc1ncnc2c1c(I)cn2[C@@H]1O[C@H](CO)[C@@H](O)[C@H]1O [IODO]
– | reversed | OCCN(CCO)c1nc(N2CCCCC2)c2nc(N(CCO)CCO)nc(N3CCCCC3)c2n1 [DPY]
